Assay results published in US8691804B2 (Evotec AG, priority 2008, dated 2014).

Target: T1, human H3 receptors (Homo sapiens, UniProt Q9Y5N1)
T1 construct: host or cells: CHO-K1
Assay: cAMP quantification assay for human H3 receptor testing
Assay type: cell-based
Conditions: CHO-K1 cells expressing human H3 receptors; inhibition of agonist-induced decrease of cAMP; 100 nM histamine, 10 μM forskolin; read-out: Potency range (IC50 values)
Method in brief: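 CHO-K1 cells expressing human H3 (10,000/well) were preincubated 30 min at 37 °C with compound in PBS containing 1 mM IBMX and 0.03% BSA. They were then challenged 30 min with agonist solution (100 nM histamine plus 10 μM forskolin). cAMP was quantified by enzyme-complementation luminescence, with 8 concentrations in triplicate at 1% DMSO.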

T1 sequence (Q9Y5N1 whole entry): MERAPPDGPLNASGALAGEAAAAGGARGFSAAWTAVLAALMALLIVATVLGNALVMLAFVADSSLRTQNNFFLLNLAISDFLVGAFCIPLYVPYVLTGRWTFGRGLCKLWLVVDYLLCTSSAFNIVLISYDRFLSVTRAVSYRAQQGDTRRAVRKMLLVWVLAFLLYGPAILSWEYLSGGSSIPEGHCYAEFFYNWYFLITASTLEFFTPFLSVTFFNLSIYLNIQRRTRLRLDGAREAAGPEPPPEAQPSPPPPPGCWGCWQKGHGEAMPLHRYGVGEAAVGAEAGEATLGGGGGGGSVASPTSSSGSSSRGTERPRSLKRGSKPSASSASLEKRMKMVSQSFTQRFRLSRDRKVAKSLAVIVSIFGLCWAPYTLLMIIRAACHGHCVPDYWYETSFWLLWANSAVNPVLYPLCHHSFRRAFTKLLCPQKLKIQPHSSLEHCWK

Row | SMILES | IC50 [nM]
1 | CNC(=O)c1ccc(OC2CN(C(=O)N3CCN(C4CCC4)CC3)C2)cn1 [Example 37, 5-({1-[(4-cyclobutylpiperazin-1-yl)carbonyl]azetidin-3-yl}oxy)-N-methylpyridine-2-carboxamide] | < 100
2 | O=C(N1CCCN(C2CCC2)CC1)N1CC(Oc2ccc(-n3cccn3)cc2)C1 [Example 87, 1-cyclobutyl-4-({3-[4-(1H-pyrazol-1-yl)phenoxy]azetidin-1-yl}carbonyl)-1,4-diazepane] | < 100
3 | O=C(N1CCCN(C2CCC2)CC1)N1CC(O)C1 [Example 1, 1-[(4-cyclobutyl-1,4-diazepan-1-yl)carbonyl]azetidin-3-ol] | < 100
4 | O=C(NCC1CC1)c1ccc(OC2CN(C(=O)N3CCCN(C4CCC4)CC3)C2)cn1 [Example 35, 5-({1-[(4-cyclobutyl-1,4-diazepan-1-yl)carbonyl]azetidin-3-yl}oxy)-N-(cyclopropylmethyl)pyridine-2-carboxamide] | < 100
5 | CC(C)(O)c1ccc(OC2CN(C(=O)N3CCCN(C4CCC4)CC3)C2)cc1F [Example 60, 2-[4-({1-[(4-cyclobutyl-1,4-diazepan-1-yl)carbonyl]azetidin-3-yl}oxy)-2-fluorophenyl]propan-2-ol] | < 100
6 | Cc1ccc(OC2CN(C(=O)N3CCCN(C4CCC4)CC3)C2)nn1 [Example 59, 1-cyclobutyl-4-({3-[(6-methylpyridazin-3-yl)oxy]azetidin-1-yl}carbonyl)-1,4-diazepane] | < 100
7 | O=C([C@H]1C[C@@H](O)C1)N1CCCN(C2CCC2)CC1 [Example 101, cis-3-[(4-cyclobutyl-1,4-diazepan-1-yl)carbonyl]cyclobutanol] | 100 to 500
8 | O=C(N1CCCN(C2CCC2)CC1)N1CC(Oc2ccc3c(n2)CCN(C2CCC2)C3)C1 [Example 42, 6-cyclobutyl-2-({1-[(4-cyclobutyl-1,4-diazepan-1-yl)carbonyl]azetidin-3-yl}oxy)-5,6,7,8-tetrahydro-1,6-naphthyridine] | < 100
9 | COc1nccc(OC2CN(C(=O)N3CCCN(C4CCC4)CC3)C2)n1 [Example 52, 1-cyclobutyl-4-({3-[(2-methoxypyrimidin-4-yl)oxy]azetidin-1-yl}carbonyl)-1,4-diazepane] | < 100
10 | Cc1nccc(OC2CN(C(=O)N3CCCN(C4CCC4)CC3)C2)c1F [Example 151, 1-cyclobutyl-4-({3-[(3-fluoro-2-methylpyridin-4-yl)oxy]azetidin-1-yl}carbonyl)-1,4-diazepane] | < 100
11 | CNC(=O)c1cccc(OC2CN(C(=O)N3CCCN(C4CCC4)CC3)C2)c1 [Example 75, 3-({1-[(4-cyclobutyl-1,4-diazepan-1-yl)carbonyl]azetidin-3-yl}oxy)-N-methylbenzamide] | < 100
12 | O=C(N1CCCN(C2CCC2)CC1)N1CC(Oc2ccc(Cl)cn2)C1 [Example 77, 1-({3-[(5-chloropyridin-2-yl)oxy]azetidin-1-yl}carbonyl)-4-cyclobutyl-1,4-diazepane] | < 100
13 | O=C(N1CCCN(C2CCC2)CC1)N1CC(Oc2ccc(Br)nc2)C1 [Example 24, 1-({3-[(6-bromopyridin-3-yl)oxy]azetidin-1-yl}carbonyl)-4-cyclobutyl-1,4-diazepane] | < 100
14 | N#Cc1ccc(COC2CN(C(=O)N3CCCN(C4CCC4)CC3)C2)cc1 [Example 98, 4-[({1-[(4-cyclobutyl-1,4-diazepan-1-yl)carbonyl]azetidin-3-yl}oxy)methyl]benzonitrile] | < 100
15 | Nc1cc(OC2CN(C(=O)N3CCCN(C4CCC4)CC3)C2)ccn1 [Example 57, 4-({1-[(4-cyclobutyl-1,4-diazepan-1-yl)carbonyl]azetidin-3-yl}oxy)pyridin-2-amine] | < 100
16 | O=C1NCCc2cc(OCC3CN(C(=O)N4CCCN(C5CCC5)CC4)C3)ccc21 [Example 136, 6-({1-[(4-cyclobutyl-1,4-diazepan-1-yl)carbonyl]azetidin-3-yl}methoxy)-3,4-dihydroisoquinolin-1(2H)-one] | < 100
17 | CN(C)C(=O)c1ccc(OC2CN(C(=O)N3CCCN(C4CCC4)CC3)C2)cc1 [Example 9, 4-({1-[(4-cyclobutyl-1,4-diazepan-1-yl)carbonyl]azetidin-3-yl}oxy)-N,N-dimethylbenzamide] | < 100
18 | Cc1cnc(C)c(OC2CN(C(=O)N3CCCN(C4CCC4)CC3)C2)n1 [Example 64, 1-cyclobutyl-4-({3-[(3,6-dimethylpyrazin-2-yl)oxy]azetidin-1-yl}carbonyl)-1,4-diazepane] | < 100
19 | CN1CCc2cc(OCC3CN(C(=O)N4CCCN(C5CCC5)CC4)C3)ccc2C1=O [Example 137, 6-({1-[(4-cyclobutyl-1,4-diazepan-1-yl)carbonyl]azetidin-3-yl}methoxy)-2-methyl-3,4-dihydroisoquinolin-1(2H)-one] | < 100
20 | O=C(N1CCCN(C2CCC2)CC1)N1CC(Oc2cccn3ccnc23)C1 [Example 70, 8-({1-[(4-cyclobutyl-1,4-diazepan-1-yl)carbonyl]azetidin-3-yl}oxy)imidazo[1,2-a]pyridine] | < 100
21 | N#Cc1ccc(O[C@H]2C[C@H](C(=O)N3CCCN(C4CCC4)CC3)C2)cc1 [Example 106, 4-({trans-3-[(4-cyclobutyl-1,4-diazepan-1-yl)carbonyl]cyclobutyl}oxy)benzonitrile] | < 100
22 | O=C([C@H]1C[C@H](O)C1)N1CCCN(C2CCC2)CC1 [Example 105, trans-3-[(4-cyclobutyl-1,4-diazepan-1-yl)carbonyl]cyclobutanol] | < 100
23 | O=C(N1CCCN(C2CCC2)CC1)N1CC(OCc2ccc(Cl)cc2)C1 [Example 97, 1-({3-[(4-chlorobenzyl)oxy]azetidin-1-yl}carbonyl)-4-cyclobutyl-1,4-diazepane] | < 100
24 | O=C(N1CCCN(C2CCC2)CC1)N1CC(Oc2cncc(Cl)c2)C1 [Example 80, 1-({3-[(5-chloropyridin-3-yl)oxy]azetidin-1-yl}carbonyl)-4-cyclobutyl-1,4-diazepane] | < 100
25 | N#Cc1cccc(OC2CN(C(=O)N3CCCN(C4CCC4)CC3)C2)c1 [Example 30, 3-({1-[(4-cyclobutyl-1,4-diazepan-1-yl)carbonyl]azetidin-3-yl}oxy)benzonitrile] | < 100
26 | CN1CCc2cc(OC3CN(C(=O)N4CCCN(C5CCC5)CC4)C3)ccc2C1=O [Example 117, 6-({1-[(4-cyclobutyl-1,4-diazepan-1-yl)carbonyl]azetidin-3-yl}oxy)-2-methyl-3,4-dihydroisoquinolin-1(2H)-one] | < 100
27 | O=C1CC(C(=O)N2CCCN(C3CCC3)CC2)C1 [Example 100, 3-[(4-cyclobutyl-1,4-diazepan-1-yl)carbonyl]cyclobutanone] | < 100
28 | Cc1ccc(N(C)C(=O)C2CN(C(=O)N3CCCN(C4CCC4)CC3)C2)cn1 [Example 145, 1-[(4-cyclobutyl-1,4-diazepan-1-yl)carbonyl]-N-methyl-N-(6-methylpyridin-3-yl)azetidine-3-carboxamide] | < 100
29 | O=C(N1CCCN(C2CCC2)CC1)N1CC(Oc2ccncc2F)C1 [Example 49, 1-cyclobutyl-4-({3-[(3-fluoropyridin-4-yl)oxy]azetidin-1-yl}carbonyl)-1,4-diazepane] | < 100
30 | Cc1ccc(OC2CN(C(=O)N3CCCN(C4CCC4)CC3)C2)cn1 [Example 121, 1-cyclobutyl-4-({3-[(6-methylpyridin-3-yl)oxy]azetidin-1-yl}carbonyl)-1,4-diazepane] | < 100
